# What was measured:
# [1] = target: Casein kinase I isoform gamma-1 (Homo sapiens) (UniProt Q9HCP0)
# [2] = target: Cyclin-dependent kinase 2 (Homo sapiens, UniProt P24941)
# [3] = target: T1, Serine/threonine-protein kinase 17A (Homo sapiens) (UniProt Q9UEE5)
# T1 sequence (whole entry): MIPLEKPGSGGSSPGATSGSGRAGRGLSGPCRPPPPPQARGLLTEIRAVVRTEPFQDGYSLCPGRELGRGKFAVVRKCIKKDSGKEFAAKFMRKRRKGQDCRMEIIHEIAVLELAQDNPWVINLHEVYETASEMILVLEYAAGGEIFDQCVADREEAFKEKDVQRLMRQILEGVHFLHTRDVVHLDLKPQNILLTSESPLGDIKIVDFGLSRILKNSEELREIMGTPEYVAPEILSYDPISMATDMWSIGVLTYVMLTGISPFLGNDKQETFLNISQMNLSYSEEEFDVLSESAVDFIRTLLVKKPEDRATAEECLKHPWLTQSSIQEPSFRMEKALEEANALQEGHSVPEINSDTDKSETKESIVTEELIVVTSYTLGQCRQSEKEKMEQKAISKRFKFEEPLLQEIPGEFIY
# [4] = target: Dual specificity protein kinase CLK3 (Homo sapiens) (UniProt P49761)
# [5] = target: T2, Serine/threonine-protein kinase Nek2 (Homo sapiens) (UniProt P51955)
# T2 sequence (whole entry): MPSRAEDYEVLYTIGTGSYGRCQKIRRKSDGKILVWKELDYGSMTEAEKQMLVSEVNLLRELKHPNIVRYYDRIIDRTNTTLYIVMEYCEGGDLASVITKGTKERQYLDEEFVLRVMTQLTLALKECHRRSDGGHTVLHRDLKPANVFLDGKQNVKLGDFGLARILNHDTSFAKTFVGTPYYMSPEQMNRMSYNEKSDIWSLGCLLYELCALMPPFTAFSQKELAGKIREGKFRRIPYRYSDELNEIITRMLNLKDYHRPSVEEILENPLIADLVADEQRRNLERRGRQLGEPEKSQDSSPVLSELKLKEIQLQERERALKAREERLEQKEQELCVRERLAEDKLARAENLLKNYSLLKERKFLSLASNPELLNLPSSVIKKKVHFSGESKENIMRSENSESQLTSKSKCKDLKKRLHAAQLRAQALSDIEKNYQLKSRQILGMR
# [6] = target: cAMP-dependent protein kinase catalytic subunit alpha (Homo sapiens) (UniProt P17612)
# [7] = target: Serine/threonine-protein kinase PAK 6 (Homo sapiens) (UniProt Q9NQU5)
# [8] = target: 5'-AMP-activated protein kinase catalytic subunit alpha-2 (Homo sapiens) (UniProt P54646)
# [9] = target: T3, Serine/threonine-protein kinase PLK4 (Homo sapiens) (UniProt O00444)
# T3 sequence (whole entry): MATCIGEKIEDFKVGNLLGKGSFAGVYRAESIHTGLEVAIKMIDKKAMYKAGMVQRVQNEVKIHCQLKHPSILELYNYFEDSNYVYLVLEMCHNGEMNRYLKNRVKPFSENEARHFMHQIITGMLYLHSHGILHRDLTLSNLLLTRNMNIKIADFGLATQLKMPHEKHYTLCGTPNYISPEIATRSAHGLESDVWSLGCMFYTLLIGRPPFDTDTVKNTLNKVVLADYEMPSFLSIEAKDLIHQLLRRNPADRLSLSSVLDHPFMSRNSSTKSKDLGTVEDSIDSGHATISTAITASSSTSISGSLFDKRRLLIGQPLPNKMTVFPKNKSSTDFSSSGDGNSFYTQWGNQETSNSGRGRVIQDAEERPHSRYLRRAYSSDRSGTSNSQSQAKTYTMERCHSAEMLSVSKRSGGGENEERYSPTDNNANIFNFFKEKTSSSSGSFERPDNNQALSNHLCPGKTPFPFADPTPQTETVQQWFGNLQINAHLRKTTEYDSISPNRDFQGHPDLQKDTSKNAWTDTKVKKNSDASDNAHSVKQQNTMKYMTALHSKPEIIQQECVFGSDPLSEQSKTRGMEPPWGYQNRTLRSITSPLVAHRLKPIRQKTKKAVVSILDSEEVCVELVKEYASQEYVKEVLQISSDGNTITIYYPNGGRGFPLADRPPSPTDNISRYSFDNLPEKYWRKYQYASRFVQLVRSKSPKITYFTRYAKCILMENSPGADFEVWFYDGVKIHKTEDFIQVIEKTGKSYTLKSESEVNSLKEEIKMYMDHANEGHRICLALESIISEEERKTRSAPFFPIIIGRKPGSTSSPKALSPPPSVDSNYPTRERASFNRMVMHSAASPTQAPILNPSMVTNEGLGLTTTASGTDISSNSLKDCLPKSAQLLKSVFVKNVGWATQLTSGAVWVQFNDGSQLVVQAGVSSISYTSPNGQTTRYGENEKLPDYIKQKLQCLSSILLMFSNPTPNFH
# [10] = target: Serine/threonine-protein kinase 26 (Homo sapiens) (UniProt Q9P289)
# [11] = target: Serine/threonine-protein kinase 38 (Homo sapiens) (UniProt Q15208)
# [12] = target: Death-associated protein kinase 3 (Homo sapiens) (UniProt O43293)
# [13] = target: T4, Serine/threonine-protein kinase VRK3 (Homo sapiens) (UniProt Q8IV63)
# T4 sequence (whole entry): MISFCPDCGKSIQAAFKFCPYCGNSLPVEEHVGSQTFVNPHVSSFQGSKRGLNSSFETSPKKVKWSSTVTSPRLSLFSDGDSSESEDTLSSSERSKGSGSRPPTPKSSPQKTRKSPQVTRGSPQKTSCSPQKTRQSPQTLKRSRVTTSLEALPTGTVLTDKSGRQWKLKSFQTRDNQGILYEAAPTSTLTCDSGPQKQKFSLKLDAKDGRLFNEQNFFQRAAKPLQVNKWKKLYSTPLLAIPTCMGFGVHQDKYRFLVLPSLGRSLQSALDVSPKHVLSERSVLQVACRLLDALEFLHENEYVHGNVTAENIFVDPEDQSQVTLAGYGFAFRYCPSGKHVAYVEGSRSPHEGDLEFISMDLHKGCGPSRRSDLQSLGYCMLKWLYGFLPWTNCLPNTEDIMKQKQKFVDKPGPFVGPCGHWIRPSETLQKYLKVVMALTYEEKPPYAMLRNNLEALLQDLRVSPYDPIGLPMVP
# [14] = target: Serine/threonine-protein kinase 26 (Homo sapiens) (UniProt Q9P289); remark: listed apart in the source
# Chain of Death-associated protein kinase 3 (Homo sapiens) (O43293 whole entry, looked up): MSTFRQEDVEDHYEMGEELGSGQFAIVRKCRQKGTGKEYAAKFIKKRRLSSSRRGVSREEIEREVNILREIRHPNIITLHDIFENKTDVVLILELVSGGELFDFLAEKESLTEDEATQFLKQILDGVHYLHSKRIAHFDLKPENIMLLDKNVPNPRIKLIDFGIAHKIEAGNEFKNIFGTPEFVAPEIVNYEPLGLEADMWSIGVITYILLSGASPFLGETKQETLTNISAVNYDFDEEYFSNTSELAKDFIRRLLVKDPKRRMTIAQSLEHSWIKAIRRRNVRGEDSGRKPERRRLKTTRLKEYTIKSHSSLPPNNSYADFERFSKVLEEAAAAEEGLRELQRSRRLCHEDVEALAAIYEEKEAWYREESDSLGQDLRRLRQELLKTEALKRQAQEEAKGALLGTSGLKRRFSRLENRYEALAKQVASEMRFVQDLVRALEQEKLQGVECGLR
# Chain of 5'-AMP-activated protein kinase catalytic subunit alpha-2 (Homo sapiens) (P54646 whole entry, looked up): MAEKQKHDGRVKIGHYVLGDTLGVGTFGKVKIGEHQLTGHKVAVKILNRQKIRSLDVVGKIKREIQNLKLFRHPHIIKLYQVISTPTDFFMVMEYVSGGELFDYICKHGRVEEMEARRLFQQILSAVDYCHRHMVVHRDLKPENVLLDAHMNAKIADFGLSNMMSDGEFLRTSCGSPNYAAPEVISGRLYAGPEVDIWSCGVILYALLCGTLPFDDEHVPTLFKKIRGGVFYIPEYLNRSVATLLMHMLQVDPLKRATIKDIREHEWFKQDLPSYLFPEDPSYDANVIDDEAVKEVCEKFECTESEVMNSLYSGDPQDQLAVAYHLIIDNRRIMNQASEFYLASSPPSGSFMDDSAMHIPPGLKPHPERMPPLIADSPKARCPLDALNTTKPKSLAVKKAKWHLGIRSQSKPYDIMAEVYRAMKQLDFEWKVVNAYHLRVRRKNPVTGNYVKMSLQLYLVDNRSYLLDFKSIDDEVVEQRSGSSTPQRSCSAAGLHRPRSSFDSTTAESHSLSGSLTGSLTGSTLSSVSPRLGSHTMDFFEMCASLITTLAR
# Chain of Serine/threonine-protein kinase 26 (Homo sapiens) (Q9P289 2-416 limits assumed): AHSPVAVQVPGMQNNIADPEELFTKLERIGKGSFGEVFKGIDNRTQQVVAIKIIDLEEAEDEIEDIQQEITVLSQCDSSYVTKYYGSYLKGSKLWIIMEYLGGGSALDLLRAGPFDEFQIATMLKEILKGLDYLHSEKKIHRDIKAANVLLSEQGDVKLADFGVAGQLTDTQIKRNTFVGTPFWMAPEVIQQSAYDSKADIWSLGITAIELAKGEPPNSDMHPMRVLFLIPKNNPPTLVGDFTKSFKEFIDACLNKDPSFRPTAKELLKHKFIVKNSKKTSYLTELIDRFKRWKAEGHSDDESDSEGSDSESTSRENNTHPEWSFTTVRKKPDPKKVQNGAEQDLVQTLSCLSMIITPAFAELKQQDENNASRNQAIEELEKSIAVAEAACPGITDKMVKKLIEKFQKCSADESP
# Chain of Casein kinase I isoform gamma-1 (Homo sapiens) (Q9HCP0 whole entry, looked up, canonical isoform): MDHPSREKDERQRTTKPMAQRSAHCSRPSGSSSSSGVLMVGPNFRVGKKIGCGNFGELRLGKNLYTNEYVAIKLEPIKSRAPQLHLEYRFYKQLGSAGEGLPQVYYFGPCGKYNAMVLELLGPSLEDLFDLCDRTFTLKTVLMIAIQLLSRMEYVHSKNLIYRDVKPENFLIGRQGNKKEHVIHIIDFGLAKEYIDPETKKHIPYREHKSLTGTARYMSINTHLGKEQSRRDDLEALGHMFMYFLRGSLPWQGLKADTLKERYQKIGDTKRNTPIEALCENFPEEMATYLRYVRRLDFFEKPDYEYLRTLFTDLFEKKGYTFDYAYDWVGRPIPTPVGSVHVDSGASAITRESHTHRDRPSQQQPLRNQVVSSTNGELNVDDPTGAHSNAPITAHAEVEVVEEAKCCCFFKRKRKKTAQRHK
# Chain of Serine/threonine-protein kinase 38 (Homo sapiens) (Q15208 2-465 limits assumed): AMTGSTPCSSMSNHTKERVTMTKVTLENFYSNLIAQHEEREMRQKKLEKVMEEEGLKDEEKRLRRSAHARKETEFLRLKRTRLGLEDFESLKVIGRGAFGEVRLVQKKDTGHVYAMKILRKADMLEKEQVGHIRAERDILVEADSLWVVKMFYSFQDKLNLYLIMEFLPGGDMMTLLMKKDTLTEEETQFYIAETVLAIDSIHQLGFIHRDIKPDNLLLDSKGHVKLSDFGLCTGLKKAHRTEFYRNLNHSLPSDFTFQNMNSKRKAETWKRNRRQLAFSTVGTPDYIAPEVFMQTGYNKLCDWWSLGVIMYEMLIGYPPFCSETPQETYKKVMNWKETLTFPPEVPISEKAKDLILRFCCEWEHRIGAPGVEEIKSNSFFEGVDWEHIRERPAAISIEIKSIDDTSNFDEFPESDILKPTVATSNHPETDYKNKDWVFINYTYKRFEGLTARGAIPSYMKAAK
# Chain of Serine/threonine-protein kinase PAK 6 (Homo sapiens) (Q9NQU5 whole entry, looked up): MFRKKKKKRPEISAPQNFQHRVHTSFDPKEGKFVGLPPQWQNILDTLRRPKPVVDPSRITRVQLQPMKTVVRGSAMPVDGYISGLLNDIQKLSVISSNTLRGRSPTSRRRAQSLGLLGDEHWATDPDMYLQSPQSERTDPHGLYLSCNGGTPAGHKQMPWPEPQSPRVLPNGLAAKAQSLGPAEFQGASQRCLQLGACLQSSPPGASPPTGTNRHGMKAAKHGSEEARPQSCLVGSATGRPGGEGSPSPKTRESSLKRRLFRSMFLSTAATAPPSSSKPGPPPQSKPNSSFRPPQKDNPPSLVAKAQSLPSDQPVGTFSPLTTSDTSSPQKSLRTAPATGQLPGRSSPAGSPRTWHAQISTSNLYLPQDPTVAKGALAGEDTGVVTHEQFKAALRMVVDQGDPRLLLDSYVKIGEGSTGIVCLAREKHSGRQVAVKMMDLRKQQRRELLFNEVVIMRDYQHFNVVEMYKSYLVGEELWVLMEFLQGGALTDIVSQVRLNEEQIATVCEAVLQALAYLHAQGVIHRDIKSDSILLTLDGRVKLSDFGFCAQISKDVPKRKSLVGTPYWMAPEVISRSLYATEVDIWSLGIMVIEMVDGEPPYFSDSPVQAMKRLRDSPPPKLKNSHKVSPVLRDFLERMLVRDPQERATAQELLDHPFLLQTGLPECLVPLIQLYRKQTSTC
# Chain of Dual specificity protein kinase CLK3 (Homo sapiens) (P49761 whole entry, looked up): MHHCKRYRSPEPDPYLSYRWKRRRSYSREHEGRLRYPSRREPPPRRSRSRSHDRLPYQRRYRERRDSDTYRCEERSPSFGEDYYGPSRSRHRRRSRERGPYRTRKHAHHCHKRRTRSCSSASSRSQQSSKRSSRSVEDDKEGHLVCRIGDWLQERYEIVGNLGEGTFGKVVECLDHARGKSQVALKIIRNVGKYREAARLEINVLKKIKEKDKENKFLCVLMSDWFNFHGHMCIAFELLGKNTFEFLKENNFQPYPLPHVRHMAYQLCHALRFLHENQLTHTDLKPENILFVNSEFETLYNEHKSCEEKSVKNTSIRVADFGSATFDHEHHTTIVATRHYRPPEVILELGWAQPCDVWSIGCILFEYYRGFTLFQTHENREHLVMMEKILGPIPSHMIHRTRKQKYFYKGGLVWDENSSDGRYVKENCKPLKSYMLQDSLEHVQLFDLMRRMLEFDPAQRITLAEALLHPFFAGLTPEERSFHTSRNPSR
Compound,ΔTm [1],ΔTm [2],ΔTm [3],ΔTm [4],ΔTm [5],ΔTm [6],ΔTm [7],ΔTm [8],ΔTm [9],ΔTm [10],ΔTm [11],ΔTm [12],ΔTm [13],ΔTm [14]
Cc1cc(Nc2nc(-c3ccccc3)nc3ccccc23)n[nH]1,3.3 °C,3 °C,2.2 °C,3.5 °C,3 °C,6.4 °C,5.4 °C,5.8 °C,1.3 °C,9.5 °C,4 °C,6.5 °C,6.6 °C,3.3 °C
CN(C)S(=O)(=O)c1ccc2c(c1)/C(=C/c1cc3c([nH]1)CCCC3)C(=O)N2,0.9 °C,2.3 °C,3.3 °C,4.1 °C,2.8 °C,2.5 °C,-4.4 °C,6.7 °C,12.8 °C,1 °C,2.2 °C,0.3 °C,1.5 °C,6.3 °C
N#CC(C#N)=Cc1ccc(O)c(O)c1 [TYRPHOSTIN 23],0.4 °C,1.1 °C,0.9 °C,0.4 °C,1.2 °C,0.6 °C,-0.2 °C,-0.1 °C,0.7 °C,0.1 °C,0.2 °C,0.7 °C,-0.2 °C,0.3 °C
CC(C)(C)n1nc(-c2cccc3ccccc23)c2c(N)ncnc21,0.1 °C,0.1 °C,2 °C,0.2 °C,-0.2 °C,2.1 °C,0.3 °C,0 °C,1.1 °C,1.1 °C,0.4 °C,-0.8 °C,0.2 °C,-4.9 °C
COc1ccc2c(c[n+](C)c3c4cc5c(cc4ccc23)OCO5)c1OC [CHELERYTHRINE CHLORIDE],0 °C,0.2 °C,-0.8 °C,-1 °C,-1.2 °C,1.4 °C,-3.3 °C,-1.3 °C,-3.1 °C,-4.2 °C,0.1 °C,0.1 °C,-0.6 °C,-1 °C
Cc1ccc(NC(=O)c2cccc(N(C)C)c2)cc1NC(=O)c1ccc(O)cc1,-0.1 °C,0.3 °C,0.6 °C,0 °C,0.3 °C,0.9 °C,0.6 °C,-0.1 °C,0.8 °C,1 °C,0 °C,-0.4 °C,-0.1 °C,0.7 °C
O=C1NC(=O)C(c2cn(CCCn3ccnc3)c3ccccc23)=C1Nc1ccccc1,0.6 °C,0.4 °C,0.5 °C,3 °C,1.2 °C,0.3 °C,-0.4 °C,0.4 °C,0.8 °C,3.1 °C,0.7 °C,1.3 °C,1.6 °C,2 °C
O=C1NC(=O)c2c1c1c3ccccc3n3c1c1c2c2ccccc2n1C1CCC3O1,0.2 °C,0.2 °C,-0.4 °C,0.5 °C,0.3 °C,0.3 °C,1.5 °C,3.9 °C,0 °C,-0.6 °C,0 °C,-0.5 °C,0 °C,1.5 °C
Cl.Cn1cc(C2=C(c3ccc4cc5n(c4c3)CCC(CN)C5)C(=O)NC2=O)c2ccccc21 (configuration not stated),0.5 °C,2.4 °C,3.5 °C,0 °C,1.1 °C,1.5 °C,0.7 °C,-0.4 °C,0.1 °C,0.3 °C,0.4 °C,0.7 °C,0.6 °C,1.2 °C
C[C@@H]1C[C@H]2O[C@@H]2/C=C\C=C\C(=O)Cc2c(Cl)c(O)cc(O)c2C(=O)O1 [RADICICOL],0.3 °C,0.5 °C,1 °C,0 °C,0.2 °C,0.7 °C,0.3 °C,-0.3 °C,0.5 °C,0.9 °C,0.3 °C,-0.3 °C,-0.4 °C,-0.2 °C
O=C1NC(=O)c2c1c1c3ccccc3[nH]c1n1cncc21 [ISOGRANULATIMIDE],4.3 °C,5.2 °C,1.3 °C,2.3 °C,2.4 °C,5.9 °C,-0.5 °C,3.6 °C,3.2 °C,5.4 °C,2.4 °C,5.3 °C,3.7 °C,2.5 °C
Oc1cc(O)cc(/C=C/c2ccc(O)c(O)c2)c1 [PICEATANNOL],0 °C,1.2 °C,0.3 °C,0.7 °C,1.1 °C,2.7 °C,0.5 °C,0.2 °C,1.1 °C,1 °C,1.7 °C,4.6 °C,-0.2 °C,0.9 °C
CN(C)CCCn1cc(C2=C(c3c[nH]c4ccccc34)C(=O)NC2=O)c2ccccc21 [GF-109203],1 °C,1.7 °C,1.3 °C,2.7 °C,0.7 °C,3.6 °C,2.4 °C,2.6 °C,3 °C,1.7 °C,0.3 °C,2.8 °C,0 °C,3.1 °C

# From ChEMBL document CHEMBL1145498, “A systematic interaction map of validated kinase inhibitors with Ser/Thr kinases” (Proc Natl Acad Sci U S A, 2007)
